The text below walks through data of patent US20220348590A1, “CYCLOOXYGENASE-2 INHIBITORS AND USES THEREOF” (The Board Institute, Inc., priority 2019, published 2022).

Entries after “also recorded” stand apart in the source; their conditions may differ.

Series [1] can be described thus: Mouse Microsome Stability. The format is in vitro ADME. The conditions noted are these: mouse microsomes.
Series [2] addresses T1, human recombinant COX2 (hCOX2) (UniProt P35354).
T1 sequence (P35354 1-604): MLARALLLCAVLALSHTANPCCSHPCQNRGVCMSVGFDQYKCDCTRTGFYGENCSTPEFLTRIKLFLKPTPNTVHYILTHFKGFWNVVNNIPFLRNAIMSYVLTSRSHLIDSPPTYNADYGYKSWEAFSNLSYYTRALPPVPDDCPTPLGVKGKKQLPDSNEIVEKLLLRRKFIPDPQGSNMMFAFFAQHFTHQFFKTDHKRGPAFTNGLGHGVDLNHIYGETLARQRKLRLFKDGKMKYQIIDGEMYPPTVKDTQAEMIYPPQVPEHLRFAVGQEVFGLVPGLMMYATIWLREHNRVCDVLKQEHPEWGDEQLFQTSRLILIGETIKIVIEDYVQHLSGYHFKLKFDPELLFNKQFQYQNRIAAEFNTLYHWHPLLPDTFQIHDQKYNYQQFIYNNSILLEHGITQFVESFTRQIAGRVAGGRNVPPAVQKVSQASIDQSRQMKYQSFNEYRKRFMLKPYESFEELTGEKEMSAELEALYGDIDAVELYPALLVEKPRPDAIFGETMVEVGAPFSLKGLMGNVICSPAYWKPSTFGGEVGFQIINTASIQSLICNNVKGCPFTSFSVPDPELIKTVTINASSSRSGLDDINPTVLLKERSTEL
Description: LCMS-based COX2 enzymatic inhibition assay (PGE2 quantification). On the set-up: improvement in potency; other: COX2 potency relative to MC1 / earlier ligand; comparator not always stated; other: vs MC1 (MC-1). The format is biochemical. As to the method: We have adapted a previously reported cyclooxygenase enzymatic assay utilizing LCMS quantification of PGE2 as the product of COX-1 and COX2 catalyzed conversion of arachidonic acid to evaluate the binding properties of newly synthesized ligands [Cao, 2011]. These optimized and miniaturized (384-well plates) LCMS-based COX-1 and COX2 enzymatic assays enabled us to quickly evaluate newly synthesized ligands for COX2 binding affinity and selectivity vs COX-1. Using a shorter ligand-enzyme incubation time in the LCMS assay (2 minutes vs 10 minutes) also permitted us to prioritize ligands with faster binding kinetics. Considering the relatively slow on-rate kinetics of known coxibs, due to their 3-step binding mechanism [Marnett, 2009], we believe that optimizing this critical parameter will be key to the successful development of a COX2 PET tracer. Using these enzymatic assays, we have evaluated>200 newly synthesized ligands against COX2 and >20 ligands against COX-1. Another critical property necessary for a good PET radiotracer is to have low non-specific binding (NSB) to increase the free fraction and maximize the signal to noise ratio. This property can be evaluated using in-vitro protein binding assays, and we have now evaluated>50 newly synthesized ligands in mouse, rat and human plasma protein binding (PPB) assays as well as >15 ligands in a mouse brain protein binding (BPB) assay.
Ovine COX-1 (oCOX-1), ovine COX2 (oCOX2), human recombinant COX2 (hCOX2), arachidonic acid, PGE2, d4-PGD2, and […] (labeled with deuterium atoms at positions 3 and 4) were purchased from Cayman Chemicals (Ann Arbor, Mich.). The cofactors (−)epinephrine and hematin, and the COX inhibitors indomethacin, resveratrol and diclofenac were purchased from Sigma-Aldrich (St. Louis, Mo.). Celecoxib was purchased from 3B PharmaChem International (Wuhan, China). All organic solvents were HPLC grade or better and were purchased from Thermo Fisher (Hanover Park, Ill.). Formic acid was purchased from EMD Chemicals (San Diego, Calif.). Purified water was prepared by using a Millipore Milli-Q purification system (Millipore, Billerica, Mass.). All other chemicals and solvents were ACS reagent grade, unless stated otherwise.
In an Eppendorf tube, 146 μL of 100 mM Tris.HCl (pH 8.0) buffer, 2 μL of 100 μM hematin (co-factor) and 10 μL of 40 mM L-epinephrine (co-factor) were mixed at room temperature. […]
The concentration of PGE2 in each sample was measured using LC-MS-MS, and the percent of COX inhibition by each test solution was determined by comparing the amount of PGE2 produced in the experiment with that produced in the negative control incubation. The formation of PGD2 was measured for quality control purposes, since the levels of PGD2 should be proportional to those of PGE2. […]

Regarding `CS(=O)(=O)c1ccc(-c2cncc(NCc3cccs3)n2)cc1` [Compound 98], the “Mouse Microsome Stability % Remaining Avg” value in series [1] was found to be 3%. In addition, the “potency / binding affinity compared to MC1” value in series [2] (vs MC1 (MC-1)) was “maintaining potency; also recorded: equivalent binding affinity”.
Take `CS(=O)(=O)c1ccc(-c2cccc(NCc3ccoc3)n2)cc1` [Compound 47, N-(furan-3-ylmethyl)-6-(4-(methylsulfonyl)phenyl)pyridin-2-amine]: the improvement in potency in series [2] (COX2 potency relative to MC1 / earlier ligand, comparator not always stated) is reported as around 4 fold.
As for `COc1ncc(NCc2cccs2)nc1-c1ccc(S(C)(=O)=O)cc1` [Compound 29], the “Mouse Microsome Stability % Remaining Avg” value in series [1] was 4.3%.
